Measured values taken from US9073830B2 (Hyundai Pharm Co., Ltd., priority 2011, dated 2015).

Key:
human 11β-HSD1 = biological target: T1, human 11β-HSD1 (Homo sapiens, UniProt P28845); test: Enzyme activity analysis on human 11β-HSD1 (HTRF cortisol, liver microsomes); format: biochemical; conditions: first value of cell
T1 construct: 100 ug/ml human/mouse liver microsomes; from tissue; host or cells: human liver microsomes
Description: (§1) After culturing at 37° C. for 2 hours, 5 μl of cryptate-labeled anti-cortisol antibody and 5 μl of d2-labeled cortisol were added thereto. After further culturing at room temperature for 2 hours, a homogeneous time-resolved fluorescence (HTRF, Cisbio) signal was measured. From each analysis, based on a standard curve calculated using cortisols of several known concentrations, an amount of produced cortisol was tested.
(§2) While an amount of cortisol, produced without the compound, was used as a control, an inhibition percentage by the test compound, at each concentration, was calculated. By using an inhibition curve calculated by coordinates of inhibition percentage to test compound concentration, an IC50 value of the compound on 11β-HSD1 was obtained.

mouse 11β-HSD1 = biological target: T2, mouse 11β-HSD1 (Mus musculus, UniProt P50172); test: Enzyme activity analysis on mouse 11β-HSD1 (HTRF cortisol, liver microsomes); format: biochemical; conditions: second value of cell
T2 construct: 100 ug/ml human/mouse liver microsomes; from tissue; host or cells: mouse liver microsomes
Description: as §1, §2

T2 sequence (P50172 whole entry): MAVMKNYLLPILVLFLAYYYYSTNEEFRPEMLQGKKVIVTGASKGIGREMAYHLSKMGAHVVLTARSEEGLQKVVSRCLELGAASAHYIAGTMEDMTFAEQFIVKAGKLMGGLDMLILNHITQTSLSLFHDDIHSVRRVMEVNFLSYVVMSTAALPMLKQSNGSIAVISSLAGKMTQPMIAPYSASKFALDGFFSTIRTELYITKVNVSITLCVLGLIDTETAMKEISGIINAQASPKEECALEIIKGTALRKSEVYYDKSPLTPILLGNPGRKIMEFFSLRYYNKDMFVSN
T1 sequence (P28845 whole entry): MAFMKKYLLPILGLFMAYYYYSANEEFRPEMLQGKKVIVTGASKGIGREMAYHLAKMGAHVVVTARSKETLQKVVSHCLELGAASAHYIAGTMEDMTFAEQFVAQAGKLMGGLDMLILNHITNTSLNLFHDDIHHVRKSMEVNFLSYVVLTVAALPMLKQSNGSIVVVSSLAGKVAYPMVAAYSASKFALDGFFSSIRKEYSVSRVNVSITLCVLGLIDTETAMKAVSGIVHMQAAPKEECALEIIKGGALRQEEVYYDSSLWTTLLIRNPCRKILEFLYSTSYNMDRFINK

Row | IC50 (human 11β-HSD1) [µM] | IC50 (mouse 11β-HSD1) [µM] | Structure (SMILES)
1 | 0.018 | 0.058 | NC(=O)C12CC3CC(C1)C(NC(=O)C1(NS(=O)(=O)c4cccc(Cl)c4Cl)CCC1)C(C3)C2 (stereo not shown) [compound 158, N-4-(1-(2,3-dichlorophenylsulfonamido)cyclobutanecarboxyamido)adamantane-1-carboxyamide]
2 | 0.1 | 0.888 | CC(C)(NS(=O)(=O)c1ccc(F)cc1)C(=O)NC1C2CC3CC(C2)CC1C3 (stereo not shown) [compound 2, N-(adamantane-2-yl)-2-methyl-2-(4-fluorophenylsulfonamido)propanamide]
3 | 0.006 | 0.092 | CN(C(C)(C)C(=O)NC1C2CC3CC1CC(O)(C3)C2)S(=O)(=O)c1ccccc1C(F)(F)F (stereo not shown) [compound 208, N-(5-hydroxyadamantane-2-yl)-2-(2-trifluoromethyl-N-methylphenylsulfonamido)-2-methylpropanamide]
4 | 0.724 | 0.559 | NC(=O)C12CC3CC(C1)C(NC(=O)C1(NS(=O)(=O)c4ccc(OC(F)F)cc4)CCC1)C(C3)C2 (stereo not shown) [compound 166, N-4-(1-(4-(difluoromethoxy)phenylsulfonamido)cyclobutanecarboxyamido)adamantane-1-carboxyamide]
5 | 0.036 | 0.313 | Cc1ccccc1S(=O)(=O)NC(C)(C)C(=O)NC1C2CC3CC(C2)CC1C3 (stereo not shown) [compound 15, N-(adamantane-2-yl)-2-methyl-2-(2-methylphenylsulfonamido)propanamide]
6 | 0.039 | 0.283 | CC(C)(NS(=O)(=O)Cc1ccccc1)C(=O)NC1C2CC3CC(C2)CC1C3 (stereo not shown) [compound 63, N-(adamantane-2-yl)-2-methyl-2-(phenylmethylsulfonamido)propanamide]
7 | > 2.5 | > 2.5 | CNC(=O)C12CC3CC(C1)C(NC(=O)C1(NS(=O)(=O)c4ccccc4Cl)CCC1)C(C3)C2 (stereo not shown) [compound 238]
8 | 0.065 | 1.67 | CC(C)(NS(=O)(=O)Cc1ccc(Cl)cc1)C(=O)NC1C2CC3CC(C2)CC1C3 (stereo not shown) [compound 33, N-(adamantane-2-yl)-2-methyl-2-((4-chlorophenyl)methylsulfonamido)propanamide]
9 | 0.015 | 0.074 | Cc1c(Cl)cccc1S(=O)(=O)NC1(C(=O)NC2C3CC4CC2CC(C(N)=O)(C4)C3)CC1 (stereo not shown) [compound 133, N-4-(1-(2-methyl-3-chlorophenylsulfonamido)cyclopropanecarboxyamido)adamantane-1-carboxyamide]
10 | 0.046 | 0.138 | Cc1ccccc1S(=O)(=O)NC1(C(=O)NC2C3CC4CC2CC(C(N)=O)(C4)C3)CCC1 (stereo not shown) [compound 156, N-4-(1-(2-methylphenylsulfonamido)cyclobutanecarboxyamido)adamantane-1-carboxyamide]
11 | > 2.5 | > 2.5 | COc1ccc(S(=O)(=O)NC(C)(C)C(=O)NC2C3CC4CC2CC(C(N)=O)(C4)C3)cc1 (stereo not shown) [compound 86, N-4-(2-(4-methoxyphenylsulfonamido)-2-methylpropanamido)adamantane-1-carboxyamide]
12 | 0.048 | 0.7 | CC(C)(NS(=O)(=O)Cc1ccccc1Cl)C(=O)NC1C2CC3CC(C2)CC1C3 (stereo not shown) [compound 34, N-(adamantane-2-yl)-2-methyl-2-((2-chlorophenyl)methylsulfonamido)propanamide]
13 | 0.051 | 0.453 | CC(C)(NS(=O)(=O)c1cc(F)ccc1F)C(=O)NC1C2CC3CC1CC(C(N)=O)(C3)C2 (stereo not shown) [compound 120]
14 | 0.009 | 0.007 | NC(=O)C12CC3CC(C1)C(NC(=O)C1(NS(=O)(=O)c4cccc(Cl)c4Cl)CCCC1)C(C3)C2 (stereo not shown) [compound 176, N-4-(1-(2,3-dichlorophenylsulfonamido)cyclopentanecarboxyamido)adamantane-1-carboxyamide]
15 | 0.052 | 0.264 | CC(C)(NS(=O)(=O)c1cccc(Cl)c1Cl)C(=O)NC1C2CC3CC(C2)CC1C3 (stereo not shown) [compound 8, N-(adamantane-2-yl)-2-methyl-2-(2,3-dichlorophenylsulfonamido)propanamide]
16 | > 2.5 | > 2.5 | CC(C)(NS(=O)(=O)c1ccc(Cl)c([N+](=O)[O-])c1)C(=O)NC1C2CC3CC(C2)CC1C3 (stereo not shown) [compound 61, N-(adamantane-2-yl)-2-methyl-2-(4-chloro-3-nitrophenylsulfonamido)propanamide]
17 | 0.096 | 0.589 | COc1ccc(S(=O)(=O)NC(C)(C)C(=O)NC2C3CC4CC2CC(C(N)=O)(C4)C3)c(OC)c1 (stereo not shown) [compound 129]
18 | 0.04 | > 2.5 | CC(C)(NS(=O)(=O)Cc1ccc(C(F)(F)F)cc1)C(=O)NC1C2CC3CC(C2)CC1C3 (stereo not shown) [compound 36, N-(adamantane-2-yl)-2-methyl-2-((4-trifluoromethylphenyl)methylsulfonamido)propanamide]

Row | IC50 (human 11β-HSD1) [µM] | IC50 (mouse 11β-HSD1) [µM] | Structure (SMILES)
19 | 1.8 | 1.7 | CC(C)(NS(=O)(=O)c1ccc(-c2ccccc2)cc1)C(=O)NC1C2CC3CC(C2)CC1C3 (stereo not shown) [compound 42, N-(adamantane-2-yl)-2-methyl-2-([1,1-biphenyl]-4-ylsulfonamido)propanamide]
20 | > 2.5 | 1.44 | O=C(NC1C2CC3CC(C2)CC1C3)C1(NS(=O)(=O)c2cccc([N+](=O)[O-])c2)CCC1 (stereo not shown) [compound 142, N-(adamantane-2-yl)-1-(3-nitrophenylsulfonamido)cyclobutanecarboxyamide]
21 | 0.045 | 0.42 | CC(C)(NS(=O)(=O)c1ccccc1OC(F)(F)F)C(=O)NC1C2CC3CC(C2)CC1C3 (stereo not shown) [compound 25, N-(adamantane-2-yl)-2-methyl-2-(2-(trifluoromethoxy)phenylsulfonamido)propanamide]
22 | 0.184 | 1.68 | O=C(NC1C2CC3CC(C2)CC1C3)C1(NS(=O)(=O)c2ccccc2C(F)(F)F)CCC1 (stereo not shown) [compound 140, N-(adamantane-2-yl)-1-(2-trifluoromethylphenylsulfonamido)cyclobutanecarboxyamide]
23 | 0.083 | 0.797 | CC(C)(NS(=O)(=O)c1ccc(Cl)cc1[N+](=O)[O-])C(=O)NC1C2CC3CC1CC(O)(C3)C2 (stereo not shown) [compound 79, N-(5-hydroxyadamantane-2-yl)-2-methyl-2-(4-chloro-2-nitrophenylsulfonamido)propanamide]
24 | 0.009 | 0.048 | NC(=O)C12CC3CC(C1)C(NC(=O)C1(NS(=O)(=O)c4ccccc4Br)CCCCC1)C(C3)C2 (stereo not shown) [compound 178, N-4-(1-(2-bromophenylsulfonamido)cyclohexanecarboxyamido)adamantane-1-carboxyamide]
25 | 0.196 | 0.631 | COc1ccc(S(=O)(=O)NC(C)(C)C(=O)NC2C3CC4CC2CC(O)(C4)C3)cc1 (stereo not shown) [compound 71, N-(5-hydroxyadamantane-2-yl)-2-methyl-2-(4-methoxyphenylsulfonamido)propanamide]
26 | 0.024 | 0.145 | NC(=O)C12CC3CC(C1)C(NC(=O)C1(NS(=O)(=O)c4ccccc4Br)CCC1)C(C3)C2 (stereo not shown) [compound 155, N-4-(1-(2-bromophenylsulfonamido)cyclobutanecarboxyamido)adamantane-1-carboxyamide]
27 | 0.043 | 0.561 | Cc1cc(F)ccc1S(=O)(=O)NC(C)(C)C(=O)NC1C2CC3CC(C2)CC1C3 (stereo not shown) [compound 39, N-(adamantane-2-yl)-2-methyl-2-(4-fluoro-2-methylphenylsulfonamido)propanamide]
28 | 0.829 | 0.847 | CC(=O)c1ccc(S(=O)(=O)NC(C)(C)C(=O)NC2C3CC4CC(C3)CC2C4)cc1 (stereo not shown) [compound 38, N-(adamantane-2-yl)-2-methyl-2-(4-acetylphenylsulfonamido)propanamide]
29 | 0.105 | 0.292 | CC(C)(NS(=O)(=O)c1cccnc1Cl)C(=O)NC1C2CC3CC(C2)CC1C3 (stereo not shown) [compound 50, N-(adamantane-2-yl)-2-methyl-2-(2-chloropyridine-3-sulfonamido)propanamide]
30 | 0.08 | 0.33 | Cc1c(Cl)cccc1S(=O)(=O)NC(C)(C)C(=O)NC1C2CC3CC(C2)CC1C3 (stereo not shown) [compound 7, N-(adamantane-2-yl)-2-methyl-2-(3-chloro-2methylphenylsulfonamido)propanamide]
31 | 0.481 | 0.167 | CC(C)(NS(=O)(=O)c1ccc(C(=O)NC2C3CC4CC(C3)CC2C4)cc1Cl)C(=O)NC1C2CC3CC(C2)CC1C3 (stereo not shown) [compound 44]
32 | 0.182 | 0.062 | Cc1ccc(S(=O)(=O)NC2(C(=O)NC3C4CC5CC3CC(C(N)=O)(C5)C4)CCC2)cc1F (stereo not shown) [compound 151, N-4-(1-(3-fluoro-4-methylphenylsulfonamido)cyclobutanecarboxyamido)adamantane-1-carboxyamide]
33 | 0.08 | 0.509 | NC(=O)C12CC3CC(C1)C(NC(=O)C1(NS(=O)(=O)c4ccccc4[N+](=O)[O-])CCC1)C(C3)C2 (stereo not shown) [compound 145, N-4-(1-(2-nitrophenylsulfonamido)cyclobutanecarboxyamido)adamantane-1-carboxyamide]
34 | 0.011 | 0.208 | CN(C(C)(C)C(=O)NC1C2CC3CC1CC(O)(C3)C2)S(=O)(=O)c1ccccc1F (stereo not shown) [compound 202, N-(5-hydroxyadamantane-2-yl)-2-(2-fluoro-N-methylphenylsulfonamido)-2-methylpropanamide]
35 | 0.018 | 0.113 | NC(=O)C12CC3CC(C1)C(NC(=O)C1(NS(=O)(=O)c4ccccc4OC(F)(F)F)CCC1)C(C3)C2 (stereo not shown) [compound 160, N-4-(1-(2-trifluoromethoxyphenylsulfonamido)cyclobutanecarboxyamido)adamantane-1-carboxyamide]
